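Results reflect a 48-hour exposure of cells in 96-well plates to compound at five concentrations. GI50: concentration for 50% inhibition of growth. The concentration for full growth arrest is given as TGI.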
How the values were obtained:
Experiment in all cases: NCI-60 cell line screen, 48 h
HT29 colon = system: HT29 colon
M14 melanoma = system: M14 melanoma
SK-MEL-28 melanoma = system: SK-MEL-28 melanoma
SR leukemia = system: SR leukemia
SNB-75 CNS = system: SNB-75 CNS
PC-3 prostate = system: PC-3 prostate
HCC-2998 colon = system: HCC-2998 colon
BT-549 breast = system: BT-549 breast
NCI/ADR-RES ovarian = system: NCI/ADR-RES ovarian
RXF 393 renal = system: RXF 393 renal
HOP-62 NSCLC = system: HOP-62 NSCLC
SK-OV-3 ovarian = system: SK-OV-3 ovarian
UACC-257 melanoma = system: UACC-257 melanoma
A498 renal = system: A498 renal
MOLT-4 leukemia = system: MOLT-4 leukemia
HL-60(TB) leukemia = system: HL-60(TB) leukemia
MALME-3M melanoma = system: MALME-3M melanoma
SNB-19 CNS = system: SNB-19 CNS
HS 578T breast = system: HS 578T breast
OVCAR-8 ovarian = system: OVCAR-8 ovarian
KM12 colon = system: KM12 colon
MCF7 breast = system: MCF7 breast
HOP-92 NSCLC = system: HOP-92 NSCLC
RPMI-8226 leukemia = system: RPMI-8226 leukemia
SF-295 CNS = system: SF-295 CNS
UACC-62 melanoma = system: UACC-62 melanoma
IGROV1 ovarian = system: IGROV1 ovarian
MDA-MB-435 = system: MDA-MB-435
NCI-H460 lung = system: NCI-H460 lung
ACHN renal = system: ACHN renal
NCI-H522 lung = system: NCI-H522 lung
U251 CNS = system: U251 CNS
HCT-116 colon = system: HCT-116 colon
MDA-MB-231 breast = system: MDA-MB-231 breast
DU-145 prostate = system: DU-145 prostate
COLO 205 colon = system: COLO 205 colon
UO-31 renal = system: UO-31 renal
TK-10 renal = system: TK-10 renal
NCI-H226 lung = system: NCI-H226 lung
OVCAR-5 ovarian = system: OVCAR-5 ovarian
OVCAR-4 ovarian = system: OVCAR-4 ovarian
NCI-H23 lung = system: NCI-H23 lung
SK-MEL-5 melanoma = system: SK-MEL-5 melanoma
A549 NSCLC = system: A549 NSCLC
CCRF-CEM leukemia = system: CCRF-CEM leukemia
T-47D breast = system: T-47D breast
SF-539 CNS = system: SF-539 CNS
HCT-15 colon = system: HCT-15 colon
EKVX NSCLC = system: EKVX NSCLC
SN12C renal = system: SN12C renal
SK-MEL-2 melanoma = system: SK-MEL-2 melanoma
OVCAR-3 ovarian = system: OVCAR-3 ovarian
786-0 renal = system: 786-0 renal
SW-620 colon = system: SW-620 colon
SF-268 CNS = system: SF-268 CNS
CAKI-1 renal = system: CAKI-1 renal
LOX IMVI melanoma = system: LOX IMVI melanoma
K-562 leukemia = system: K-562 leukemia

Which GI50 (HT29 colon) does the source give for CC(C)(C)Nc1nc2c(OCCc3ccccc3)cccn2c1-c1ccc(Cl)cc1 here?
The GI50 was 19.7 µM.

What about the TGI (HT29 colon) of the same molecule?
The TGI was 53.6 µM.

And the GI50 (M14 melanoma)?
Its GI50 is 26.3 µM.

And the TGI (M14 melanoma)?
Its TGI is 71.2 µM.

What about the GI50 (SK-MEL-28 melanoma) of the same molecule?
Its GI50 is 27.6 µM.

What about the TGI (SK-MEL-28 melanoma) of the same molecule?
The TGI was greater than 100 µM.

And the GI50 (SR leukemia)?
The GI50 was 19.3 µM.

What about the TGI (SR leukemia) of the same molecule?
Its TGI is greater than 100 µM.

And the GI50 (SNB-75 CNS)?
The GI50 was 17.6 µM.

And the TGI (SNB-75 CNS)?
The TGI was greater than 100 µM.

What about the GI50 (PC-3 prostate) of the same molecule?
The GI50 was 25.3 µM.

What about the TGI (PC-3 prostate) of the same molecule?
The TGI was greater than 100 µM.

And the GI50 (HCC-2998 colon)?
The GI50 was 28.1 µM.

What about the TGI (HCC-2998 colon) of the same molecule?
Its TGI is greater than 100 µM.

And the GI50 (BT-549 breast)?
Its GI50 is 19.6 µM.

And the TGI (BT-549 breast)?
Its TGI is 49.5 µM.

What about the GI50 (NCI/ADR-RES ovarian) of the same molecule?
Its GI50 is 21.6 µM.

What about the TGI (NCI/ADR-RES ovarian) of the same molecule?
Its TGI is 82.4 µM.

And the GI50 (RXF 393 renal)?
Its GI50 is 13.4 µM.

What about the TGI (RXF 393 renal) of the same molecule?
The TGI was 35.6 µM.

And the GI50 (HOP-62 NSCLC)?
The GI50 was 20.2 µM.

And the TGI (HOP-62 NSCLC)?
Its TGI is 52.8 µM.

What about the GI50 (SK-OV-3 ovarian) of the same molecule?
Its GI50 is 24.5 µM.

And the TGI (SK-OV-3 ovarian)?
The TGI was 75.7 µM.

What about the GI50 (UACC-257 melanoma) of the same molecule?
The GI50 was 26.4 µM.

And the TGI (UACC-257 melanoma)?
The TGI was 89.9 µM.

And the GI50 (A498 renal)?
Its GI50 is 15.2 µM.

And the TGI (A498 renal)?
The TGI was 62.1 µM.

What about the GI50 (MOLT-4 leukemia) of the same molecule?
The GI50 was 18.3 µM.

And the TGI (MOLT-4 leukemia)?
The TGI was 95.5 µM.

What about the GI50 (HL-60(TB) leukemia) of the same molecule?
Its GI50 is 25.7 µM.

What about the TGI (HL-60(TB) leukemia) of the same molecule?
The TGI was 74.5 µM.

What about the GI50 (MALME-3M melanoma) of the same molecule?
The GI50 was 23.9 µM.

What about the TGI (MALME-3M melanoma) of the same molecule?
The TGI was 59 µM.

And the GI50 (SNB-19 CNS)?
Its GI50 is 32.3 µM.

And the TGI (SNB-19 CNS)?
Its TGI is greater than 100 µM.

And the GI50 (HS 578T breast)?
The GI50 was 20.8 µM.

What about the TGI (HS 578T breast) of the same molecule?
Its TGI is 77.5 µM.

And the GI50 (OVCAR-8 ovarian)?
The GI50 was 27.1 µM.

And the TGI (OVCAR-8 ovarian)?
Its TGI is greater than 100 µM.

What about the GI50 (KM12 colon) of the same molecule?
Its GI50 is 22.2 µM.

And the TGI (KM12 colon)?
The TGI was 69.9 µM.

And the GI50 (MCF7 breast)?
The GI50 was 21.1 µM.

What about the TGI (MCF7 breast) of the same molecule?
The TGI was 93.5 µM.

What about the GI50 (HOP-92 NSCLC) of the same molecule?
Its GI50 is 17.4 µM.

What about the TGI (HOP-92 NSCLC) of the same molecule?
The TGI was 67.2 µM.

What about the GI50 (RPMI-8226 leukemia) of the same molecule?
Its GI50 is 20.8 µM.

What about the TGI (RPMI-8226 leukemia) of the same molecule?
The TGI was 60.4 µM.

What about the GI50 (SF-295 CNS) of the same molecule?
The GI50 was 24.8 µM.

What about the TGI (SF-295 CNS) of the same molecule?
The TGI was 61.8 µM.

And the GI50 (UACC-62 melanoma)?
Its GI50 is 16 µM.

What about the TGI (UACC-62 melanoma) of the same molecule?
The TGI was 38.3 µM.

What about the GI50 (IGROV1 ovarian) of the same molecule?
The GI50 was 25.7 µM.

What about the TGI (IGROV1 ovarian) of the same molecule?
Its TGI is greater than 100 µM.

And the GI50 (MDA-MB-435)?
Its GI50 is 30.3 µM.

And the TGI (MDA-MB-435)?
Its TGI is greater than 100 µM.

What about the GI50 (NCI-H460 lung) of the same molecule?
The GI50 was 18.9 µM.

And the TGI (NCI-H460 lung)?
Its TGI is 50.5 µM.

What about the GI50 (ACHN renal) of the same molecule?
The GI50 was 27.3 µM.

What about the TGI (ACHN renal) of the same molecule?
Its TGI is greater than 100 µM.

What about the GI50 (NCI-H522 lung) of the same molecule?
Its GI50 is 16.1 µM.

And the TGI (NCI-H522 lung)?
The TGI was 54.3 µM.

And the GI50 (U251 CNS)?
The GI50 was 18.7 µM.

And the TGI (U251 CNS)?
Its TGI is 48.7 µM.

What about the GI50 (HCT-116 colon) of the same molecule?
Its GI50 is 17.6 µM.

What about the TGI (HCT-116 colon) of the same molecule?
Its TGI is 43.4 µM.

And the GI50 (MDA-MB-231 breast)?
Its GI50 is 16.7 µM.

And the TGI (MDA-MB-231 breast)?
Its TGI is 35 µM.

What about the GI50 (DU-145 prostate) of the same molecule?
The GI50 was 25 µM.

What about the TGI (DU-145 prostate) of the same molecule?
The TGI was greater than 100 µM.

What about the GI50 (COLO 205 colon) of the same molecule?
The GI50 was 16.4 µM.

And the TGI (COLO 205 colon)?
The TGI was 34.7 µM.

What about the GI50 (UO-31 renal) of the same molecule?
The GI50 was 11.3 µM.

What about the TGI (UO-31 renal) of the same molecule?
The TGI was 39.7 µM.

What about the GI50 (TK-10 renal) of the same molecule?
The GI50 was 25.3 µM.

And the TGI (TK-10 renal)?
The TGI was 79.5 µM.

What about the GI50 (NCI-H226 lung) of the same molecule?
Its GI50 is 18.1 µM.

And the TGI (NCI-H226 lung)?
The TGI was 60 µM.

And the GI50 (OVCAR-5 ovarian)?
Its GI50 is 23.7 µM.

And the TGI (OVCAR-5 ovarian)?
The TGI was greater than 100 µM.

And the GI50 (OVCAR-4 ovarian)?
The GI50 was 26.7 µM.

What about the TGI (OVCAR-4 ovarian) of the same molecule?
The TGI was greater than 100 µM.

What about the GI50 (NCI-H23 lung) of the same molecule?
Its GI50 is 25.3 µM.

What about the TGI (NCI-H23 lung) of the same molecule?
The TGI was 83.4 µM.

What about the GI50 (SK-MEL-5 melanoma) of the same molecule?
The GI50 was 17 µM.

And the TGI (SK-MEL-5 melanoma)?
The TGI was 32.6 µM.

What about the GI50 (A549 NSCLC) of the same molecule?
The GI50 was 24 µM.

What about the TGI (A549 NSCLC) of the same molecule?
Its TGI is greater than 100 µM.

And the GI50 (CCRF-CEM leukemia)?
The GI50 was 29.9 µM.

And the TGI (CCRF-CEM leukemia)?
Its TGI is 97.2 µM.

And the GI50 (T-47D breast)?
Its GI50 is 17.7 µM.

What about the TGI (T-47D breast) of the same molecule?
Its TGI is greater than 100 µM.

What about the GI50 (SF-539 CNS) of the same molecule?
Its GI50 is 18.5 µM.

What about the TGI (SF-539 CNS) of the same molecule?
The TGI was 37.8 µM.

And the GI50 (HCT-15 colon)?
Its GI50 is 17.3 µM.

And the TGI (HCT-15 colon)?
The TGI was 43.1 µM.

And the GI50 (EKVX NSCLC)?
The GI50 was 22.5 µM.

And the TGI (EKVX NSCLC)?
The TGI was 86 µM.

And the GI50 (SN12C renal)?
The GI50 was 22.4 µM.

And the TGI (SN12C renal)?
The TGI was greater than 100 µM.

And the GI50 (SK-MEL-2 melanoma)?
Its GI50 is 12.8 µM.

What about the TGI (SK-MEL-2 melanoma) of the same molecule?
Its TGI is 28.8 µM.

And the GI50 (OVCAR-3 ovarian)?
Its GI50 is 16.4 µM.

And the TGI (OVCAR-3 ovarian)?
The TGI was 64.8 µM.

And the GI50 (786-0 renal)?
The GI50 was 19.4 µM.

And the TGI (786-0 renal)?
The TGI was 45.2 µM.

What about the GI50 (SW-620 colon) of the same molecule?
Its GI50 is 28.1 µM.

What about the TGI (SW-620 colon) of the same molecule?
Its TGI is greater than 100 µM.

What about the GI50 (SF-268 CNS) of the same molecule?
Its GI50 is 27.1 µM.

And the TGI (SF-268 CNS)?
The TGI was greater than 100 µM.

What about the GI50 (CAKI-1 renal) of the same molecule?
The GI50 was 25.1 µM.

What about the TGI (CAKI-1 renal) of the same molecule?
Its TGI is greater than 100 µM.

What about the GI50 (LOX IMVI melanoma) of the same molecule?
Its GI50 is 17.1 µM.

And the TGI (LOX IMVI melanoma)?
The TGI was 33.3 µM.

And the GI50 (K-562 leukemia)?
Its GI50 is 26.4 µM.

And the TGI (K-562 leukemia)?
Its TGI is greater than 100 µM.
